The values below come from US7871793B2, “Antimicrobial carbohydrates and methods of using same” (Burnham Institute for Medical Research, priority 2004, dated 2011).

The subject of one experiment is H. pylori infection. The conditions noted are these: patients; cited from earlier work.
Another experiment relates to H. pylori (ATCC43504). Nature of the experiment: Cultivation of H. pylori in the presence or absence of cholesterol. It counts as cell-based, Helicobacter pylori. The conditions noted are these: Ham's F-12 with 0.005% cholesterol, 5 days.
Another experiment has as its system H. pylori. Nature of the experiment: Cell motility assay (time-lapse confocal images). Type of experiment: cell-based, Helicobacter pylori. Particulars: 31.2 mU/ml or same protein concentration, 3 days, mean±SD.
Experiment [1] concerns Helicobacter pylori (ATCC43504). The experiment is described as follows: Cell growth assay of H. pylori (microbroth dilution, OD 600 nm). Type of experiment: cell-based. The conditions noted are these: ATCC43504, Brucella broth, 96-well plate, 35° C., 15% CO2, 4 days, OD600.
For experiment [2], the system named is UDP-Glc:sterol glucosyltransferase. Nature of the experiment: In vitro synthesis of CGL from UDP-Glc and cholesterol by sonicated H. pylori. Particulars: 5.0 mU in 100 μl reaction (50.0 mU/ml), 30° C., 3 hours. Type of experiment: biochemical, Helicobacter pylori.

On to `Cc1ncc([N+](=O)[O-])n1CCO` [metronidazole], for which, in the experiment with H. pylori infection, the eradication rate result is “less than 10%”.
Consider `CC1(C)S[C@@H]2[C@H](NC(=O)[C@H](N)c3ccc(O)cc3)C(=O)N2[C@H]1C(=O)O` [amoxicillin], for which the eradication rate result with H. pylori infection is “less than 20%”.
As for `CC(C)CCC[C@@H](C)[C@H]1CC[C@H]2[C@@H]3CC=C4C[C@@H](O)CC[C@]4(C)[C@H]3CC[C@]12C` [cholesterol], in the experiment on H. pylori (ATCC43504), the morphology entry was “normal” and the motility result is on record as “good”. Besides, the CFU/ml with H. pylori (ATCC43504) (35° C.) is reported as 1 × 10^8 CFU/ml.
With `CC[C@H]1OC(=O)[C@H](C)[C@@H](O[C@H]2C[C@@](C)(OC)[C@@H](O)[C@H](C)O2)[C@H](C)[C@@H](O[C@@H]2O[C@H](C)C[C@H](N(C)C)[C@H]2O)[C@](C)(OC)C[C@@H](C)C(=O)[C@H](C)[C@@H](O)[C@]1(C)O` [clarithromycin], in the experiment on H. pylori infection, the eradication rate result is recorded as “about 40%”.

B1: CD43 free of a GlcNAcα residue: control soluble CD43 produced without α4GnT cDNA; side chain Galβ1→4GlcNAcβ1→6(Galβ1→3)GalNAcα→Ser/Thr (protein, UniProt P16150 20-253, looked up)
extracellular domain: STTAVQTPTSGEPLVSTSEPLSSKMYTTSITSDPKADSTGDQTSALPPSTSINEGSPLWTSIGASTGSPLPEPTTYQEVSIKMSSVPQETPHATSHPAVPITANSLGSHTVTGGTITTNSPETSSRTSGAPVTTAASSLETSRGTSGPPLTMATVSLETSKGTSGPPVTMATDSLETSTGTTGPPVTMTTGSLEPSSGASGPQVSSVKLSTMMSPTTSTNASTVPFRNPDENSR
modifications: extracellular domain core2 O-glycans lacking terminal GlcNAc
notes: control soluble CD43 produced without α4GnT cDNA; side chain Galβ1→4GlcNAcβ1→6(Galβ1→3)GalNAcα→Ser/Thr
With B1, the “mean velocity of seven H. pylori” value with H. pylori was 21.1±2.6 μm/sec; in the experiment on H. pylori (listed as αGlcNAc (−)) it was 21.2±2.6 μm/sec. Moreover, the “growth of H. pylori” value in experiment [1] is on record as “drastic growth”. Further, the “peak of CGL at m/z 571.6 in products of sonicated H. pylori” value in experiment [2] is on record as “a peak of CGL was detected”.
